In PubChem BioAssay (NCI):
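1) Cells in 96-well plates. 2) Compound, 48 h, 5 concentrations. 3) Linear interpolation between surrounding doses. 4) Unreached endpoint = highest concentration. TGI marks complete inhibition of growth.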

What was measured:
Assay in all cases: NCI anticancer screen, dose series, 48 h
ACHN renal = tested on: ACHN renal
MDA-MB-435 = tested on: MDA-MB-435
EKVX NSCLC = tested on: EKVX NSCLC
DU-145 prostate = tested on: DU-145 prostate
KM12 colon = tested on: KM12 colon
SK-MEL-5 melanoma = tested on: SK-MEL-5 melanoma
NCI-H23 lung = tested on: NCI-H23 lung
SF-539 CNS = tested on: SF-539 CNS
COLO 205 colon = tested on: COLO 205 colon
PC-3 prostate = tested on: PC-3 prostate
NCI-H460 lung = tested on: NCI-H460 lung
OVCAR-8 ovarian = tested on: OVCAR-8 ovarian
HL-60(TB) leukemia = tested on: HL-60(TB) leukemia
RXF 393 renal = tested on: RXF 393 renal
SR leukemia = tested on: SR leukemia
MDA-N = tested on: MDA-N
SN12C renal = tested on: SN12C renal
SK-MEL-28 melanoma = tested on: SK-MEL-28 melanoma
M14 melanoma = tested on: M14 melanoma
UO-31 renal = tested on: UO-31 renal

Compound	TGI (ACHN renal) [µM]	TGI (MDA-MB-435) [µM]	TGI (EKVX NSCLC) [µM]	TGI (DU-145 prostate) [µM]	TGI (KM12 colon) [µM]	TGI (SK-MEL-5 melanoma) [µM]	TGI (NCI-H23 lung) [µM]	TGI (SF-539 CNS) [µM]	TGI (COLO 205 colon) [µM]	TGI (PC-3 prostate) [µM]	TGI (NCI-H460 lung) [µM]	TGI (OVCAR-8 ovarian) [µM]	TGI (HL-60(TB) leukemia) [µM]	TGI (RXF 393 renal) [µM]	TGI (SR leukemia) [µM]	TGI (MDA-N) [µM]	TGI (SN12C renal) [µM]	TGI (SK-MEL-28 melanoma) [µM]	TGI (M14 melanoma) [µM]	TGI (UO-31 renal) [µM]
NS(=O)(=O)c1ccc(N=Nc2ccc(O)cc2)cc1	> 100	> 100	> 100	> 100	> 100	> 100	> 100	> 100	> 100	> 100	> 100	> 100	> 100	> 100	> 100	> 100	> 100	> 100	> 100	> 100
C/C(=N\N)C(CN1CCOCC1)C(c1ccccc1)c1c(O)c2ccccc2oc1=O (configuration not stated)	> 100	> 100	> 100	> 100	> 100	> 100	> 100	> 100	> 63.5	> 100	> 100	> 100	> 100	> 51.9	> 100	> 100	> 100	> 100	> 100	> 100
CC(=O)OC(OC(C)=O)c1c2ccccc2cc2ccccc12	61.4	> 100	50.4	> 100	33.4	25.8	> 100	36.1	37.2	90.5	31.8	41.8	> 100	31	56.3	63.7	63.4		44.8	53
C/C(CC(O)(C(F)(F)F)C(F)(F)F)=N\NC(N)=S	> 10	> 10	> 10	> 10	> 10	> 10	> 10	> 10	> 10	> 10	> 10	> 10	> 10	> 10	> 10	> 10	> 10	> 10	> 10	> 10
CCOC(=O)c1ccc(Nc2nc3ccccc3n3cccc23)cc1	> 100	> 100	> 100	> 100	> 100	> 100	> 100	> 100	> 100	> 100	> 100	> 100	0.0169	49.7	> 100	> 100	39.4	> 100	> 100	> 100
C[C@H](CCC(=O)O)[C@H]1CC[C@H]2[C@@H]3[C@@H](O)C[C@@H]4C[C@H](O)CC[C@]4(C)[C@H]3C[C@H](O)[C@]12C	> 100	> 100	> 100	> 100	> 100		> 100	> 100	> 100	> 100	> 100	> 100	> 100	> 100	> 100	> 100	> 100	> 100	> 100	
Cc1nc(-c2cccnc2)sc1C(=O)CC(=O)C(=O)Nc1cccc(NC(=O)C(=O)CC(=O)c2sc(-c3cccnc3)nc2C)n1	> 100	> 100	> 100	> 100	> 100	> 100	> 100	> 100	> 100	> 100	> 100	> 100	> 100	> 100	> 100	> 100	> 100	> 100	> 100	> 100
COC(=O)c1ccc(Oc2nc3ccc(C(F)(F)F)cc3nc2-c2ccccc2)cc1	> 100	> 100	> 100	> 100	> 100	> 100	> 100	> 100	> 100	> 100	> 100	> 100	> 100	> 100	> 100	> 100	> 100	> 100		> 100
COc1cc(/C=C2\N=C(c3ccccc3)N(c3nc4ccccc4s3)C2=O)cc(OC)c1OC	84.5	84.6	> 100	> 100	> 100	> 100	> 100	> 100		> 100	> 100	> 100	> 100	50.7	42.5	54.4	82.4	> 100	> 100	> 100
C[C@@H](c1ccccc1)N1C[C@@H](c2ccc3c(c2)OCO3)[C@@H]2C(=O)CCC[C@@H]21	67.2	> 100	> 100	> 100	> 100	> 100	> 100		42.4	> 100	> 100	> 100	> 100	> 100	> 100	> 100	> 100	76	36.9	> 100
CCCCC1Nc2ccccc2-c2ccnc(Cl)c21 (configuration not stated)	68.4	41.7	60.5	50.3	69	30.3	31.4	41.8	36	> 100	> 100		51.8	40.8	51	54.9	51	46.5	43.1	55.8
CCCCCCCCCCCCCC(=O)OCC(CCS(=O)(=O)O[C@H]1CC[C@@]2(C)C(=CC[C@@H]3C2CC[C@]2(C)C(=O)CCC32)C1)OC(=O)CCCCCCCCCCCCC (some centres not stated)	> 100	> 100	> 100	> 100	> 100	> 100	> 100	> 100	> 100	> 100	> 100		> 100	> 100	> 100	> 100	> 100	> 100	> 100	> 100
